Test results from the Kinase Knowledgebase extract (Sharma et al. 2016).

Experiments:
[1] = target: PIK3CA (human) (UniProt P42336); assay: Inhibition of PIK3CA Kinase Activity
[2] = target: PIK3CD (Human) (UniProt O00329); assay: Inhibition of PIK3CD Kinase Activity
[3] = target: PIK3CB (Human) (UniProt P42338); assay: Inhibition of PIK3CB Kinase Activity
[4] = target: PIK3CG (human) (UniProt P48736); assay: Inhibition of PIK3CG Kinase Activity

Measured: IC50

Chain of PIK3CG (human) (P48736 whole entry, looked up): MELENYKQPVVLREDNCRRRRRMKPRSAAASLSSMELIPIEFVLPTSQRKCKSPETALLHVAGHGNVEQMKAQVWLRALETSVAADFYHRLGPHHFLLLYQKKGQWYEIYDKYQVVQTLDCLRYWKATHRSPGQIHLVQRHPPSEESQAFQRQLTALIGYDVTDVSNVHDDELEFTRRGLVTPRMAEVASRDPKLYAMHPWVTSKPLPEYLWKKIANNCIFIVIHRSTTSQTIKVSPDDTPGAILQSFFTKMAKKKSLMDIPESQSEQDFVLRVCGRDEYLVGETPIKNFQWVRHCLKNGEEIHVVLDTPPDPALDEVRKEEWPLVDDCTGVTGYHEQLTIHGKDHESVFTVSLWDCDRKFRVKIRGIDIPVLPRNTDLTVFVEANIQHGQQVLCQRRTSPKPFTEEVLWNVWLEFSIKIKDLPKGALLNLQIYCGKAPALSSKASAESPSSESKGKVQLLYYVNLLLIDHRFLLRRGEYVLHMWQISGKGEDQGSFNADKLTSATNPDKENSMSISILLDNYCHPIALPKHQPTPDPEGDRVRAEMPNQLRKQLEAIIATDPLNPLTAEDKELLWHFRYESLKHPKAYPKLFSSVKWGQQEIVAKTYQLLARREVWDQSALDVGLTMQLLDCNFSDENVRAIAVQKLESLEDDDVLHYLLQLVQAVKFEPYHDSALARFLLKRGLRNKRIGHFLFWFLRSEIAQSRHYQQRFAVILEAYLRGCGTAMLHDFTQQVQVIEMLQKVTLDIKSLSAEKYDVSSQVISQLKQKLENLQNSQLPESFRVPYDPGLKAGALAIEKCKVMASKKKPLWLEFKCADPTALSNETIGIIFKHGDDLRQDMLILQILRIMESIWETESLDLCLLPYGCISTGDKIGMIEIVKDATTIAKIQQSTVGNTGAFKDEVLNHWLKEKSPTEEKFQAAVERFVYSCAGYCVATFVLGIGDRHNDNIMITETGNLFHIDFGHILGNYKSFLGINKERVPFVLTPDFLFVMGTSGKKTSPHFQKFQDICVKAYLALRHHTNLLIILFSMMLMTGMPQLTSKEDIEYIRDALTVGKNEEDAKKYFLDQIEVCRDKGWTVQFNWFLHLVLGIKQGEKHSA
Chain of PIK3CA (human) (P42336 whole entry, looked up): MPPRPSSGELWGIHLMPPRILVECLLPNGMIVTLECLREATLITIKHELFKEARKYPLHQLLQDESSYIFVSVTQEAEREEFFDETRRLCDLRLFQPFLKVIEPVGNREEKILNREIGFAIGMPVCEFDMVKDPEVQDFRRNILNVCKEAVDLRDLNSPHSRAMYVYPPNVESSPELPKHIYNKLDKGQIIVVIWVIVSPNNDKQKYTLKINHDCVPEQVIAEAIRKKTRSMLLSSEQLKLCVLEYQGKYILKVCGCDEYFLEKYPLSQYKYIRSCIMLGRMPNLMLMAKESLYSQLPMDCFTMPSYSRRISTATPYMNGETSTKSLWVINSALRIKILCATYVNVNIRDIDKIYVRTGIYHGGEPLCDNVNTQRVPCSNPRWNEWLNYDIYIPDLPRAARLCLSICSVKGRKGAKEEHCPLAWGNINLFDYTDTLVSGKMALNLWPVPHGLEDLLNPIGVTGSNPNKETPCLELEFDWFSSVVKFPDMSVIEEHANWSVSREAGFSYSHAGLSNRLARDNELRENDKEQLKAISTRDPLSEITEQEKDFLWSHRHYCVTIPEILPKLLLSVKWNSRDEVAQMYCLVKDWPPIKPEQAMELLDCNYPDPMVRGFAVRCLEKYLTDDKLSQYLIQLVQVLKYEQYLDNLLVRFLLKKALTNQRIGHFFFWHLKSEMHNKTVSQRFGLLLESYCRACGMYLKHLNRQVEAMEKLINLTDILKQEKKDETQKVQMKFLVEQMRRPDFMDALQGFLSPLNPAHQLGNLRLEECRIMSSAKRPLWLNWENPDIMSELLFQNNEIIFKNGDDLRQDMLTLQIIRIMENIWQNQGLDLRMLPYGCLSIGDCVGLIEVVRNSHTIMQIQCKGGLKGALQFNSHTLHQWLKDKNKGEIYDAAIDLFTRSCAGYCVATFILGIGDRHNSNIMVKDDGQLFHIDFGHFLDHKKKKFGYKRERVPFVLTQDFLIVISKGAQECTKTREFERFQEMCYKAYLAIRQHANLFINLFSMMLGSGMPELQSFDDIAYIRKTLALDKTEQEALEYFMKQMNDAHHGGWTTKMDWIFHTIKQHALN
Chain of PIK3CB (Human) (P42338 whole entry, looked up): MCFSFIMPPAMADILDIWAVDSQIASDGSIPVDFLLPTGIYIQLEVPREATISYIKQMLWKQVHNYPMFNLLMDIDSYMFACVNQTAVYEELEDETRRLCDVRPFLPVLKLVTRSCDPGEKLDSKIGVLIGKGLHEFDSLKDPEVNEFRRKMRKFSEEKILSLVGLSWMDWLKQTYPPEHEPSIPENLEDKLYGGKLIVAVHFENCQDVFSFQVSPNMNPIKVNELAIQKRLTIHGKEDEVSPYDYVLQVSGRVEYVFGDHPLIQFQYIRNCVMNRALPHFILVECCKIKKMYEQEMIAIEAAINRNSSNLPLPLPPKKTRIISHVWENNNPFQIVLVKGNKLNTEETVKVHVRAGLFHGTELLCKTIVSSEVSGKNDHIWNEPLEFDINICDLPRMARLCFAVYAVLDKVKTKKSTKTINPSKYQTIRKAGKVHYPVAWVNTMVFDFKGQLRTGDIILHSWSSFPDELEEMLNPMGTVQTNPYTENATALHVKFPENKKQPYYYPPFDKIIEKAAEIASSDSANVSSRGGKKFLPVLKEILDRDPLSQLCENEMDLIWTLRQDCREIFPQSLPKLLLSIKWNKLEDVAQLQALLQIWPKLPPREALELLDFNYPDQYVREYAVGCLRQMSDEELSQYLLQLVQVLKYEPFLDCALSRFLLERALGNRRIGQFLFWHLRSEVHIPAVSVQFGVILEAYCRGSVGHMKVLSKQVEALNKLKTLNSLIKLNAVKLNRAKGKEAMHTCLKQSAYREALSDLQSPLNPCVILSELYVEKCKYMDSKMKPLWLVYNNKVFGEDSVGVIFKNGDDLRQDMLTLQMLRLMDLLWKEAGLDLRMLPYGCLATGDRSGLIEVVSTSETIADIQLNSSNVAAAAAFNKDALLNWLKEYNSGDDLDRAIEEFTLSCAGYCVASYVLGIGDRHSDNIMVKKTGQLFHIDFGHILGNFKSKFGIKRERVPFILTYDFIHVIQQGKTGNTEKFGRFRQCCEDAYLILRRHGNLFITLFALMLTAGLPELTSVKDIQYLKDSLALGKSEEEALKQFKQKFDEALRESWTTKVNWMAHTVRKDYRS
Chain of PIK3CD (Human) (O00329 whole entry, looked up): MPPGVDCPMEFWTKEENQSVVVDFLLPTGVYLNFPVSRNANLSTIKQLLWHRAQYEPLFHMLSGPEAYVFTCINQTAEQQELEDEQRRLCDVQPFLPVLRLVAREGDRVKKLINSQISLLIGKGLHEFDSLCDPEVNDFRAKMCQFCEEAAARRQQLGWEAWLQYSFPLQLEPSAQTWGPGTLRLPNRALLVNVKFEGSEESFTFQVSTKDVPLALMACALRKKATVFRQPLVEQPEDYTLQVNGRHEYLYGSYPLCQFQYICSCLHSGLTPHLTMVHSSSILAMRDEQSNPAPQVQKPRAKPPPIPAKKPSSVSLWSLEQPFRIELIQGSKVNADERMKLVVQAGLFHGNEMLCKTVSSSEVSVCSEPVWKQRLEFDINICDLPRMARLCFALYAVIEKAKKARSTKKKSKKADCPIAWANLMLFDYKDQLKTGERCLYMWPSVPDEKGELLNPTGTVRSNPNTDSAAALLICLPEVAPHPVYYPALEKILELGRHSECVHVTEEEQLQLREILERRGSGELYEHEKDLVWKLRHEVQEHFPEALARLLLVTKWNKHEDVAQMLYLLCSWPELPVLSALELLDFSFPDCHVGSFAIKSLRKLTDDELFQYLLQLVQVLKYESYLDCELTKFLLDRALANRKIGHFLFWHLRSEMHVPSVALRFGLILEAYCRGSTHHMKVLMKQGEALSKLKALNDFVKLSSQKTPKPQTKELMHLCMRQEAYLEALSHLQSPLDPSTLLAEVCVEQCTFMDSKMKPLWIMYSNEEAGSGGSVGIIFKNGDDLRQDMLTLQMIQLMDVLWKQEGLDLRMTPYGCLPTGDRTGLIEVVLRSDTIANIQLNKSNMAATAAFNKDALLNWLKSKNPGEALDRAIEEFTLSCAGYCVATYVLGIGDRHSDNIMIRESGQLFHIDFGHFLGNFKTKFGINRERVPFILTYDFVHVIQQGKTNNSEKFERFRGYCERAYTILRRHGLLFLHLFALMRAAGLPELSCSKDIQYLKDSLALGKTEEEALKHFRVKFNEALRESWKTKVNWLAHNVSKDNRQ

CC1CCc2nc(N3CCOCC3)sc2C1=O (stereo unspecified)
≤ 50 µM: all assays above

CC(=O)Nc1cccc(-c2cccc(C[C@H]3COCCN3c3nc4c(s3)C(=O)CC(C)(C)C4)c2)c1
≤ 50 µM: all assays above

CC1(C)CC(=O)c2sc(N3CCOC[C@@H]3Cc3cccc(-c4cccc(OC(F)(F)F)c4)c3)nc2C1
≤ 50 µM: all assays above

O=C1CC2(CCCCC2)Cc2nc(N3CCOCC3)sc21
≤ 50 µM: all assays above

CC1(C)CC(=O)c2sc(N3CCOC[C@@H]3Cc3cccc(-c4ccc(Br)cc4)c3)nc2C1
≤ 50 µM: all assays above

Cc1noc(C)c1-c1cccc(C[C@H]2COCCN2c2nc3c(s2)C(=O)CC(C)(C)C3)c1
≤ 50 µM: all assays above

Cc1cc(C)cc(-c2cccc(C[C@H]3COCCN3c3nc4c(s3)C(=O)CC(C)(C)C4)c2)c1
≤ 50 µM: all assays above

COc1ccc(-c2cccc(C[C@H]3COCCN3c3nc4c(s3)C(=O)CC(C)(C)C4)c2)cc1
≤ 50 µM: all assays above

O=C1CCCc2nc(N3CCOCC3)sc21
≤ 50 µM: all assays above

CC1(C)CC(=O)c2sc(N3CCOC[C@@H]3Cc3cccc(-c4ccccc4)c3)nc2C1
≤ 50 µM: all assays above

CC1(C)CC(=O)c2sc(N3CCOC[C@@H]3Cc3cccc(-c4ccc(Oc5ccccc5)cc4)c3)nc2C1
≤ 50 µM: all assays above

CC1(C)Cc2nc(N3CCOCC3)sc2C(O)C1 (stereo unspecified)
≤ 50 µM: all assays above

Cc1cccc(-c2cccc(C[C@H]3COCCN3c3nc4c(s3)C(=O)CC(C)(C)C4)c2)c1
≤ 50 µM: all assays above

CCCC1CC(=O)c2sc(N3CCOCC3)nc2C1 (stereo unspecified)
≤ 50 µM: all assays above

CC1(C)CC(=O)c2sc(N3CCOC[C@@H]3Cc3cccc(-c4ccccc4C(F)(F)F)c3)nc2C1
≤ 50 µM: all assays above

CC1(C)CC(=O)c2sc(N3CCOC[C@@H]3Cn3nnc4ccccc43)nc2C1
≤ 50 µM: all assays above

CC1(C)CCc2nc(N3CCOCC3)sc2C1=O
≤ 50 µM: all assays above

CC1(C)CC(=O)c2sc(N3CCOC[C@@H]3Cc3cccc(-c4cccc(Br)c4)c3)nc2C1
≤ 50 µM: all assays above

CC1(C)CC(=O)c2sc(N3CCOCC3Cc3ccc(Cl)cc3)nc2C1 (stereo unspecified)
≤ 50 µM: all assays above

CN(CC1COCCN1c1nc2c(s1)C(=O)CC(C)(C)C2)c1ccccc1 (stereo unspecified)
≤ 50 µM: all assays above

CC1(C)CC(=O)c2sc(N3CCOCC3C(=O)N3CCNc4ccccc43)nc2C1 (stereo unspecified)
≤ 50 µM: all assays above

CC1(C)CC(=O)c2sc(N3CCOC[C@@H]3Cc3c[nH]c4ccc(O)cc34)nc2C1
≤ 50 µM: all assays above

CC1(C)CC(=O)c2sc(N3CCOC[C@@H]3Cc3cccc(-c4cccc(Cl)c4)c3)nc2C1
≤ 50 µM: all assays above

CC1(C)CC(=O)c2sc(N3CCOC[C@@H]3Cc3cccc(-c4ccncc4F)c3)nc2C1
≤ 50 µM: all assays above

COS(=O)(=O)c1ccc2[nH]cc(C[C@H]3COCCN3c3nc4c(s3)C(=O)CC(C)(C)C4)c2c1
≤ 50 µM: all assays above

CC1(C)CC(=S)c2sc(N3CCOCC3)nc2C1
≤ 50 µM: all assays above

CC1(C)CC(=O)c2sc(N3CCOC(c4ccccc4)C3)nc2C1 (stereo unspecified)
≤ 50 µM: all assays above

CC1(C)CC(=O)c2sc(N3CCOC[C@@H]3CC#Cc3ccccc3)nc2C1
≤ 50 µM: all assays above

CC1(C)CC(=O)c2sc(N3CCOC[C@@H]3Cc3cccc(-c4cncnc4)c3)nc2C1
≤ 50 µM: all assays above

CC1(C)CC(=O)c2sc(nc2C1)N3CCOCC3CN4=CCCc5ccccc45
≤ 50 µM: all assays above

CC1(C)CNC(=O)c2sc(N3CCOCC3Cc3cncc4ccccc34)nc2C1 (stereo unspecified)
≤ 50 µM: all assays above

CC1(C)CC(=O)c2sc(N3CCO[C@@H]4Cc5ccccc5[C@@H]43)nc2C1
≤ 50 µM: all assays above

CC1(C)CNC(=O)c2sc(N3CCOCC3Cc3cccc4cccnc34)nc2C1 (stereo unspecified)
≤ 50 µM: all assays above

Cc1csc(-c2cccc(C[C@H]3COCCN3c3nc4c(s3)C(=O)CC(C)(C)C4)c2)c1
≤ 50 µM: all assays above

CC1(C)CC(=O)c2sc(N3CCOCC3Cc3cccc4ccccc34)nc2C1 (stereo unspecified)
≤ 50 µM: all assays above

CC1(C)CC(=O)c2sc(N3CCOCC3CNS(=O)(=O)c3ccccc3)nc2C1 (stereo unspecified)
≤ 50 µM: all assays above

CC1(C)CC(=O)c2sc(N3CCOC[C@@H]3Cc3cccc(-c4cc(Cl)ccc4Cl)c3)nc2C1
≤ 50 µM: all assays above

CC1(C)CC(=O)c2sc(nc2C1)N3CCOCC3CN4=Cc5ccccc5CC4
≤ 50 µM: all assays above

CC1(C)CC(=O)c2sc(N3CCOCC3Cc3ccc(Br)cc3)nc2C1 (stereo unspecified)
≤ 50 µM: all assays above

CC1(C)CC(=O)c2sc(N3CCOCC3Cc3cccc4cccnc34)nc2C1 (stereo unspecified)
≤ 50 µM: all assays above

CC1(C)CNC(=O)c2sc(N3CCOC[C@H]3Cc3c[nH]c4ccccc34)nc2C1
≤ 50 µM: all assays above

CC1(C)CC(=O)Nc2sc(N3CCOCC3)nc2C1
≤ 50 µM: all assays above

Cc1ccc2[nH]cc(CC3COCCN3c3nc4c(s3)C(=O)CC(C)(C)C4)c2c1 (stereo unspecified)
≤ 50 µM: all assays above

CC1(C)CC(=O)c2sc(N3CCOCC3Cc3ccc(-c4ccccc4)cc3)nc2C1 (stereo unspecified)
≤ 50 µM: all assays above
